Assay results as given in the supplement of paper PMC10307832.

Assays:
Assay in all cases: relative viability (nuclei count vs DMSO), 5 days (fraction); higher = more cells survive
[1] = compound: CC[C@H](Nc1ncnc2[nH]cnc12)c1nc2cccc(F)c2c(=O)n1-c1ccccc1 [Idelalisib]
How it was run: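 Following overnight incubation at 37 °C, lung cancer cell lines in 1536-well plates were pinned with five library-drug doses (not always all listed) in √10 steps on vehicle-anchored plates. The cells then spent 5 days without medium change before a combined fix, permeabilisation and Hoechst stain, 4× imaging and MetaXpress nuclear counts. Viability is the treated-to-vehicle ratio of nuclei, taken as the median across plates. Only plates with control CV below 25% and at least one doubling passed.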

[2] = compound: CC[C@H](Nc1ncnc2[nH]cnc12)c1nc2cccc(F)c2c(=O)n1-c1ccccc1 [Idelalisib] + Nc1nc2[nH]cc(CCc3ccc(C(=O)N[C@@H](CCC(=O)O)C(=O)O)cc3)c2c(=O)[nH]1 [Pemetrexed] (partner 0.2 µM)
How it was run: (§1)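 Nuclei were stained with Hoechst during a one-step fixation (final 0.05% Triton X-100, 1% formaldehyde, 1 ug/ml Hoechst) carried out 5 days after dosing, then counted on 4× images. The cells, lung cancer lines in 1536-well plates, had been dosed by pin tool the day after seeding with one drug alone or a fixed anchor-drug dose plus five library-drug doses (not always all listed) in √10 steps. Relative viability is the nuclei count in treated wells divided by that in vehicle wells, and each value is the median of duplicate plates.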

[3] = compound: Nc1nc2[nH]cc(CCc3ccc(C(=O)N[C@@H](CCC(=O)O)C(=O)O)cc3)c2c(=O)[nH]1 [Pemetrexed] + COc1cccc2cc(-c3nc([C@H]4CC[C@H](C(=O)O)CC4)n4ncnc(N)c34)[nH]c12 [OSI-027] (partner 0.5 µM)
How it was run: as §1

[4] = compound: CC[C@H](Nc1ncnc2[nH]cnc12)c1nc2cccc(F)c2c(=O)n1-c1ccccc1 [Idelalisib] + CCNC(=O)c1noc(-c2cc(C(C)C)c(O)cc2O)c1-c1ccc(CN2CCOCC2)cc1 [Luminespib] (partner 0.01 µM)
How it was run: as §1

Cell Line	relative viability ([1]; 0.04 µM)	relative viability ([1]; 0.1265 µM)	relative viability ([1]; 0.4 µM)	relative viability ([1]; 1.265 µM)	relative viability ([1]; 4 µM)	relative viability ([2]; first compound 0.04 µM)	relative viability ([2]; first compound 0.1265 µM)	relative viability ([2]; first compound 0.4 µM)	relative viability ([2]; first compound 1.265 µM)	relative viability ([2]; first compound 4 µM)	relative viability ([3]; first compound 0.002 µM)	relative viability ([3]; first compound 0.006325 µM)	relative viability ([3]; first compound 0.02 µM)	relative viability ([3]; first compound 0.06325 µM)	relative viability ([3]; first compound 0.2 µM)	relative viability ([4]; first compound 0.04 µM)	relative viability ([4]; first compound 0.1265 µM)	relative viability ([4]; first compound 0.4 µM)	relative viability ([4]; first compound 1.265 µM)	relative viability ([4]; first compound 4 µM)
HCC-78	1.05	0.923	0.811	1.01	0.729	0.664	0.956	0.87	0.86	0.935	0.326	0.354	0.395	0.336	0.293	–	–	–	–	–
HCC-366	1.06	0.993	0.986	0.987	0.966	0.178	0.163	0.214	0.138	0.21	0.485	0.795	1.04	0.922	0.816	–	–	–	–	–
HCC-827	1.08	1.05	1.01	1.08	0.952	0.267	0.218	0.232	0.249	0.25	0.663	0.756	0.899	0.764	0.591	1.18	0.545	0.478	0.249	0.374
HOP-62	1.07	0.998	0.936	1.14	0.963	0.353	0.331	0.284	0.278	0.248	0.728	0.856	0.936	0.825	0.729	1.03	0.875	0.83	1.08	0.926
IA-LM	0.975	1.05	1.02	1.23	0.955	–	–	–	–	–	–	–	–	–	–	–	–	–	–	–
LC-2-ad	1.05	1	0.962	1.12	0.93	0.282	0.276	0.25	0.267	0.26	0.606	0.831	0.561	0.28	0.339	1.17	1.06	0.886	1.14	0.957
LCLC-97TM1	1.17	0.92	0.777	1.09	0.911	0.182	0.182	0.15	0.155	0.199	0.552	0.361	0.61	0.477	0.235	0.82	0.738	0.708	0.818	0.607
LCLC-103H	1.12	0.979	0.822	1.09	0.91	0.508	0.456	0.471	0.505	0.477	0.409	0.474	0.549	0.463	0.553	0.998	0.731	0.757	0.933	0.794
LK-2	1.22	1	–	1.06	0.87	0.344	0.14	–	0.324	0.404	0.233	0.205	0.228	0.153	0.2	0.177	0.142	–	0.196	0.178
LOU-NH91	1.07	0.882	0.878	0.762	0.932	0.369	0.414	0.392	0.408	0.408	0.68	0.727	0.789	0.667	0.531	0.281	0.321	0.327	0.33	0.315
LU99A	1.08	1.08	0.814	1.14	1.05	0.174	0.153	0.189	0.149	0.19	0.334	0.267	0.326	0.292	0.313	0.217	0.274	0.238	0.285	0.243
LXF-289	1.05	1.07	1	1.07	1.04	0.921	0.933	0.864	0.965	0.94	0.775	0.759	0.909	0.76	0.744	0.776	0.575	0.663	0.815	0.439
NCI-H23	1.15	1.07	0.69	0.713	1	0.64	0.619	0.422	0.53	0.509	0.516	0.532	0.623	0.684	0.663	0.219	0.221	–	–	0.196
NCI-H322M	1.08	1.03	0.808	0.849	0.873	0.648	0.634	0.639	0.628	0.623	0.606	0.484	0.536	0.583	0.476	0.955	0.919	0.719	0.847	0.683
NCI-H727	1.07	1.16	0.715	0.987	0.887	–	–	–	–	–	0.568	0.668	0.587	0.692	0.752	0.327	0.345	–	0.333	0.451
NCI-H1299	1.02	1.07	1.03	1.04	1	–	–	–	–	–	–	–	–	–	–	–	–	–	–	–
NCI-H1623	1	0.961	0.846	0.949	0.817	–	–	–	–	–	0.406	0.451	0.552	0.462	0.426	0.461	0.494	0.394	0.381	0.516
NCI-H1648	0.963	0.918	0.697	0.849	0.661	0.711	0.76	0.806	0.749	0.53	0.253	0.268	0.22	–	0.26	–	–	–	–	–
NCI-H1703	0.916	1.07	0.809	0.832	0.509	–	–	–	–	–	–	–	–	–	–	–	–	–	–	–
